# How the values were obtained:
# TNF = assay: PBMC assay: TNF cytokine levels in LPS-stimulated human PBMCs (MSD); format: cell-based; conditions: 100 ng/ml LPS for 6 hrs, TNF in supernatant via MSD
# In short: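 Cryopreserved healthy-donor human PBMCs (7.5×10^4 cells/well, RPMI + 10% FBS) were preincubated with 1:3 serially diluted compounds for 30 min at 37 °C. They were then stimulated with 100 ng/ml LPS (final) for 6 h. Supernatant TNF was measured by MSD, and EC50 values were derived.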
# NLRP3 inflammasome = assay: PBMC assay: IL-1β in LPS-stimulated human PBMCs (MSD); format: cell-based; conditions: human PBMCs, 100 ng/ml LPS for 6 hrs, IL-1β in supernatant via MSD, read-out: IL1β IC50
# In short: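 Human PBMCs from healthy donors, Ficoll-isolated and cryopreserved, were plated at 7.5×10^4 cells/well in RPMI/10% FBS for 30 min at 37 °C. Cells were then stimulated with 100 ng/ml LPS (final) for 6 h. IL-1β and TNF in supernatants were quantified by MSD immunoassay.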
Compound,EC50 (TNF) [µM],IC50 (NLRP3 inflammasome) [µM]
COC(=O)C12CC(NC(=O)Cn3nc(C)n4nc(C5CC5)cc4c3=O)(C1)C2 [Final Cpd 61],> 10,0.064
COc1cc(NC(=O)Cn2nc(C(C)C)n3nc(C4CC4)cc3c2=O)ccn1 [Final Cpd 129],> 10,0.67
CC(C)c1nn(CC(=O)Nc2ccc(Cl)nc2)c(=O)c2cc(C3CC3)nn12 [Final Cpd 110],> 10,0.59
Cc1cnccc1NC(=O)Cn1nc(C(C)C)n2nc(C3CC3)cc2c1=O [Final Cpd 134],> 10,0.23
CC(C)c1nn(CC(=O)Nc2ccc3nncn3c2)c(=O)c2cc(C(O)C(F)(F)F)nn12 (centres unmarked) [Final Cpd 157],> 10,> 10
"CCc1nn(CC(=O)Nc2ccncn2)c(=O)c2cc(I)nn12 [Final Cpd 4, 2-(7-ethyl-2-iodo-4-oxo-pyrazolo[1,5-d][1,2,4]triazin-5-yl)-N-pyrimidin-4-yl-acetamide]",> 10,0.29
Cc1nn(CC(=O)N[C@H]2C[C@@H](OCc3ccccc3Cl)C2)c(=O)c2cc(C3CC3)nn12 [Final Cpd 53],> 10,> 10

# Other lines, results leading:
EC50 (TNF) [µM],IC50 (NLRP3 inflammasome) [µM],Compound
> 10,0.55,Cc1nccc(NC(=O)Cn2nc(C(C)C)n3nc(C4CC4)cc3c2=O)c1Cl [Final Cpd 120]
> 10,0.09,CC(C)c1nn(CC(=O)N[C@H]2C[C@@](C)(O)C2)c(=O)c2cc(C3CC3(F)F)nn12 (some centres unmarked) [Final Cpd 153]
> 10,> 10,"CCOC(C)c1cc2c(=O)n(CC(=O)Nc3ccncn3)nc(C(C)C)n2n1 (centres unmarked) [Final Cpd 180, 2-(2-(1-ethoxyethyl)-74 sopropyl-4-oxopyrazolo[1,5-d][1,2,4]triazin-5(4H)-yl)-N-(pyrimidin-4-yl)acetamide]"
> 10,0.32,CC(C)c1cc2c(=O)n(CC(=O)Nc3ccnnc3)nc(C(C)C)n2n1 [Final Cpd 144]
> 10,0.82,Cc1ccc(NC(=O)Cn2nc(C(C)C)n3nc(C4CC4)cc3c2=O)cn1 [Final Cpd 122]
> 10,0.39,CC(C)c1nn(CC(=O)Nc2ccn3ccnc3c2)c(=O)c2cc(C3CC3)nn12 [Final Cpd 90]
> 10,2.24,CC(C)c1nn(CC(=O)Nc2ccc3nncn3c2)c(=O)c2cc(CC(F)(F)F)nn12 [Final Cpd 159]
> 10,0.054,"CCN1CC[C@@H](O)[C@@H](NC(=O)Cn2nc(C(C)C)n3nc(C4CC4)cc3c2=O)C1 [Final Cpd 190, 2-(2-cyclopropyl-7-isopropyl-4-oxopyrazolo[1,5-d][1,2,4]triazin-5(4H)-yl)-N-((3S,4R)-1-ethyl-4-hydroxypiperidin-3-yl)acetamide]"
> 10,0.16,CC(C)c1nn(CC(=O)Nc2ccc(=O)n(C)n2)c(=O)c2cc(C3CC3)nn12 [Final Cpd 81]

# — patent publication US20230203044A1, “PYRAZOLO[1,5-D][1,2,4]TRIAZINE-5(4H)-ACETAMIDES AS INHIBITORS OF THE NLRP3 INFLAMMASOME” (JANSSEN PHARMACEUTICA NV, priority 2020, published 2023)
